Key:
Hsp90 = molecular target: T1, Hsp90 (Homo sapiens, UniProt P07900); assay: protein thermal shift assay (Sypro Orange), Tm increase at […] Apl-1; type: binding
T1 construct: gene HSP90AA1; HSP90 recombinant protein

topo IIα = molecular target: T2, topo IIα (Homo sapiens, UniProt P11388); assay: cell-free topo II relaxation assay of supercoiled pHOT1 plasmid DNA; type: biochemical
T2 construct: gene TOP2A
T2 sequence (P11388 whole entry): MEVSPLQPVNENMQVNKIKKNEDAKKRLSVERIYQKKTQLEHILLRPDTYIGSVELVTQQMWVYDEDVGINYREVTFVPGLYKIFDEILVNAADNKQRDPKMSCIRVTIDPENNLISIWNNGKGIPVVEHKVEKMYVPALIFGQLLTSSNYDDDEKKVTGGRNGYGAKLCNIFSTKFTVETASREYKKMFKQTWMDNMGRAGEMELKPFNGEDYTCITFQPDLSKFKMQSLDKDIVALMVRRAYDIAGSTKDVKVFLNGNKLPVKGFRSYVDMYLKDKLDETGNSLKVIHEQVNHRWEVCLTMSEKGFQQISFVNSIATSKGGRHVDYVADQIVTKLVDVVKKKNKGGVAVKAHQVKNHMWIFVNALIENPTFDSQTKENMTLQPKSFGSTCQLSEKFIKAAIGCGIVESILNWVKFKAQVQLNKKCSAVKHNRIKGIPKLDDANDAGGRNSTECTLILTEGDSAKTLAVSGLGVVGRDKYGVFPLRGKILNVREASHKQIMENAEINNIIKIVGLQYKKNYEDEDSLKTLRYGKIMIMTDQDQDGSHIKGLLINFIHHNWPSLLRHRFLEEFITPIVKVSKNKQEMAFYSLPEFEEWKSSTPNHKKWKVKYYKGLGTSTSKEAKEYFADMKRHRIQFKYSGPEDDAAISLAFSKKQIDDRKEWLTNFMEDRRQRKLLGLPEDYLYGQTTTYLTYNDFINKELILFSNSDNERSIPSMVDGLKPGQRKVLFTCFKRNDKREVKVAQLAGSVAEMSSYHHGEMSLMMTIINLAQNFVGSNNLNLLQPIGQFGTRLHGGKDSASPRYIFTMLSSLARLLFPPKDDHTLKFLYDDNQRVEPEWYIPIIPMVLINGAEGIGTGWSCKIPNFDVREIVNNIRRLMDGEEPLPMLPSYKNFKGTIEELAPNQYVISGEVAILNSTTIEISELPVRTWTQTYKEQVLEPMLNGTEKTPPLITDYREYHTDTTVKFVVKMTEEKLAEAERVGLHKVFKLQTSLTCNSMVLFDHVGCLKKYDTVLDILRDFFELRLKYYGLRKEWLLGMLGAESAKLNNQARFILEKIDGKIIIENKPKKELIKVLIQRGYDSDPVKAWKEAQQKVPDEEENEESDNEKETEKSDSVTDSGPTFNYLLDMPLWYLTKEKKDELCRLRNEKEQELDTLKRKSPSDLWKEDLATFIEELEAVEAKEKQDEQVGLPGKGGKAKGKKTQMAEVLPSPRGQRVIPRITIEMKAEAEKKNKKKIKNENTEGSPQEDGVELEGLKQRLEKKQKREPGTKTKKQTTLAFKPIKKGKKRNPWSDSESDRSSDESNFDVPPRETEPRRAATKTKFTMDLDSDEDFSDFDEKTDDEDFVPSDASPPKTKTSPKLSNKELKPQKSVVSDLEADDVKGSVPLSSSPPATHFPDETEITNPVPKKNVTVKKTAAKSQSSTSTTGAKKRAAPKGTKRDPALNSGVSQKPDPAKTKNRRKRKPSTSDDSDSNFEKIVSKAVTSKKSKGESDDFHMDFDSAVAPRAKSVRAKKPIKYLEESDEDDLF

## COC1=C(Br)[C@H](O)[C@](O)(CC#N)C=C1Br [Apl-1, aeroplysinin-1]
Hsp90
  ΔTm at 2950 µM: 46.4 ± 7.4 °C
Topo IIα
  IC50: 1370 nM
